Legend:
[1] = target: specific benzodiazepine receptors in the cerebral cortex; assay: inhibition of the binding of tritiated diazepam at the specific benzodiazepine receptors in the cerebral cortex
Description: The affinity of compounds of formula I to the central benzodiazepine receptors was determined according to the method described in Life Science 20, 2101-2110 (1977) and Science 198, 849-851 (1977). According to this method, the inhibition of the binding of tritiated diazepam at the specific benzodiazepine receptors in the cerebral cortex by test substances is ascertained. The IC50 ("50% inhibiting concentration") is that concentration of the test substance which brings about a 50 percent inhibition of the specific binding of the tritiated diazepam at the specific benzodiazepine receptors in the cerebral cortex.
(§1) In the following Table there are compiled the results which have been obtained with representative compounds of formula I. The ED50 value is given for each compound listed in the Table. The ED50 is the amount of the test compound in mg/kg (p.o.) which counteracts in 50% of the animals the diazepam effect in the foregoing test. Moreover, the Table contains the IC50 value (defined hereinbefore) for all test compounds listed therein as well as details concerning the acute toxicity of certain compounds (LD50 in mg/kg following single oral administration to mice).

[2] = system: diazepam effect in the pentetrazole test; assay: pentetrazole test: antagonism of the diazepam effect in mice; format: in vivo; details: for ED50: Mus musculus, po, mice, diazepam 5 mg/kg i.p. 1 hour and test compound 15 min before pentetrazole 120 mg/kg i.p.
Description: This property was used as a basis for the test described hereinafter which permits the determination of compounds which are capable of antagonising the central properties of 1,4-benzodiazepines which have tranquillising activity.
The antagonistic activity of the compounds tested, i.e. their ability to counteract the activity of diazepam in the pentetrazole test, is determined by counting the mice which suffer spasmodic seizures in this test.
as §1

[3] = acute toxicity following single oral administration to mice; details: mouse, in vivo
From the text: as §1

[4] = system: central activities of diazepam; assay: antagonism of the central activities of diazepam (sleep/waking behaviour) in male albino rats; format: in vivo
From the text: Male albino rats (body weight about 165 g) are used for this test.

[5] = compounds of formula I with A = group (a)
[6] = 20 mg/kg i.p., then after 30 min diazepam 5 mg/kg i.v.
[7] = thieno derivatives, A = group (b)

| Structure (SMILES) | IC50 [1, 5] [µM] | ED50 [2] [mg/kg] | other results |
| --- | --- | --- | --- |
| CCOC(=O)c1ncn2c1C1C=CCN1C(=O)c1ccccc1-2 (racemic) [Example 43, ethyl (R,S)-11,13a-dihydro-9-oxo-9H-imidazo[1,5-a]pyrrolo[2,1-c][1,4]benzodiazepine-1-carboxylate] | 2.3 | 3.9 |  |
| COC(=O)c1ncn2c1CN(C)C(=O)c1cc(F)ccc1-2 [Example 3, methyl 8-fluoro-5,6-dihydro-5-methyl-6-oxo-4H-imidazo[1,5-a][1,4]benzodiazepine-3-carboxylate] | 6 | 4.9 |  |
| CC(C)OC(=O)c1ncn2c1CN(C)C(=O)c1cc(F)ccc1-2 [Example 4, isopropyl 8-fluoro-5,6-dihydro-5-methyl-6-oxo-4H-imidazo [1,5-a][1,4]benzodiazepine-3-carboxylate] | 3.9 | 6.6 | LD50 [3]: > 5000 mg/kg |
| CCOC(=O)c1ncn2c1CN(C)C(=S)c1cc(F)ccc1-2 [Example 6, ethyl 8-fluoro-5,6-dihydro-5-methyl-6-thioxo-4H-imidazo[1,5-a][1,4]benzodiazepine-3-carboxylate] | 2.5 | 6.3 |  |
| CN1Cc2c(C#N)ncn2-c2ccc(F)cc2C1=O [Example 7, 8-fluoro-5,6-dihydro-5-methyl-6-oxo-4H-imidazo[1,5-a][1,4]benzodiazepine-3-carbonitrile] | 93 | 4.2 |  |
| CCOC(=O)c1ncn2c1CN(C)C(=O)c1c(F)cccc1-2 [Example 10, ethyl 7-fluoro-5,6-dihydro-5-methyl-6-oxo-4H-imidazo[1,5-a][1,4]benzodiazepine-3-carboxylate] | 2 | 2.1 | LD50 [3]: > 5000 mg/kg |
| CCOC(=O)c1ncn2c1C1C=CCN1C(=O)c1c(F)cccc1-2 (stereo not drawn) [Example 11, ethyl 8-fluoro-11,13a-dihydro-9-oxo-9H-imidazo[1,5-a]pyrrolo[2,1-c][1,4]benzodiazepine-1-carboxylate] | 2.1 | 1.8 | LD50 [3]: 500 to 1000 mg/kg |
| CCOC(=O)c1ncn2c1[C@@H]1CCCN1C(=O)c1cc(F)ccc1-2 [Example 12, ethyl (S)-7-fluoro-11,12,13,13a-tetrahydro-9-oxo-9H-imidazo[1,5-a]pyrrolo[2,1-c][1,4]benzodiazepine-1-carboxylate] | 6 | 8.9 |  |
| CCOC(=O)c1ncn2c1CN(C)C(=O)c1c(Cl)cccc1-2 [Example 13, ethyl 7-chloro-5,6-dihydro-5-methyl-6-oxo-4H-imidazo[1,5-a][1,4]benzodiazepine-3-carboxylate] | 3 | 0.48 |  |
| CCOC(=O)c1ncn2c1[C@@H]1CCCN1C(=O)c1c(Cl)cccc1-2 [Example 14, ethyl (S)-8-chloro-11,12,13,13a-tetrahydro-9-oxo-9H-imidazo[1,5-a]pyrrolo[2,1-c][1,4]benzodiazepine-1-carboxylate] | 1.7 | 1 | LD50 [3]: 750 to 1500 mg/kg |
| CCOC(=O)c1ncn2c1CN(C)C(=O)c1ccccc1-2 [Example 16, ethyl 5,6-dihydro-5-methyl-6-oxo-4H-imidazo[1,5-a][1,4]benzodiazepine-3-carboxylate] | 3 | 10.9 | LD50 [3]: > 5000 mg/kg; waking of diazepam-treated animals ([4]; 5 mg/kg i.v., 5 or 15 min after diazepam 5 mg/kg i.v. or 30 min after diazepam 10 mg/kg i.p.): the animals stand up immediately and move around; behaviour after test substance alone ([4]; 20 mg/kg i.p.): the animals remain awake and show a normal behaviour; duration of waking phase [4, 6]: at least 30 minutes; symptoms after subsequent diazepam [4, 6]: in the first 2 minutes after the injection slight sedation and ataxia, but these symptoms rapidly disappear; antagonism of the central activities of diazepam ([4]; rats, overall finding): antagonises the central activities of the known 1,4-benzodiazepine derivative diazepam |
| CN1Cc2c(C#N)ncn2-c2ccccc2C1=O [Example 18, 5,6-dihydro-5-methyl-6-oxo-4H-imidazo[1,5-a][1,4]benzodiazepine-3-carbonitrile] | 100 | 2.6 | LD50 [3]: 1250 mg/kg |
| COC(=O)c1ncn2c1CN(C)C(=O)c1ccccc1-2 [Example 24, methyl 5,6-dihydro-5-methyl-6-oxo-4H-imidazo[1,5-a][1,4]benzodiazepine-3-carboxylate] | 9 | 13.5 |  |
| CC(C)OC(=O)c1ncn2c1CN(C)C(=O)c1ccccc1-2 [Example 25, isopropyl 5,6-dihydro-5-methyl-6-oxo-4H-imidazo[1,5-a][1,4]benzodiazepine 3-carboxylate] | 12 | 7 |  |
| CCOC(=O)c1ncn2c1CN(C)C(=S)c1ccccc1-2 [Example 27, ethyl 5,6-dihydro-5-methyl-6-thioxo-4H-imidazo[1,5-a][1,4]benzodiazepine-3-carboxylate] | 6 | 8.9 |  |
| CCOC(=O)c1ncn2c1CN(C)C(=O)c1c(C)cccc1-2 [Example 28, ethyl 5,6-dihydro-5,7-dimethyl-6-oxo-4H-imidazo[1,5-a][1,4]benzodiazepine-3-carboxylate] | 5 | 7.1 |  |
| CCOC(=O)c1ncn2c1[C@@H]1CCCN1C(=O)c1c(C)cccc1-2 [Example 29, ethyl (S)-11,12,13,13a-tetrahydro-8-methyl-9-oxo-9H-imidazo[1,5-a]pyrrolo[2,1-c]benzodiazepine-1-carboxylate] | 5 | 6.5 |  |
| COC(=O)c1ncn2c1[C@@H]1CCCN1C(=O)c1ccccc1-2 [Example 31, methyl (S)-11,12,13,13a-tetrahydro-9-oxo-9H-imidazo[1,5-a]pyrrolo[2,1-c][1,4]benzodiazepine-1-carboxylate] | 32 | 3.5 | LD50 [3]: 2000 to 4000 mg/kg |
| CC(C)OC(=O)c1ncn2c1[C@@H]1CCCN1C(=O)c1ccccc1-2 [Example 33, isopropyl (S)-11,12,13,13a-tetrahydro-9-oxo-9H-imidazo[1,5-a]pyrrolo[2,1-c][1,4]benzodiazepine-1-carboxylate] | 3 | 18.6 |  |
| CCOC(=O)c1ncn2c1[C@@H]1CCCN1C(=O)c1sccc1-2 [Example 34, ethyl (S)-10,11,12,12a-tetrahydro-8-oxo-8H-imidazo[5,1-c]pyrrolo[1,2-a]thieno[3,2-e][1,4]diazepine-1-carboxylate] |  | 1.3 | IC50 [1, 7]: 0.0009 µM |
| COC(=O)c1ncn2c1[C@@H]1CCCN1C(=O)c1sccc1-2 [Example 35, methyl (S)-10,11,12,12a-tetrahydro-8-oxo-8H-imidazo[5,1-c]pyrrolo[1,2-a]thieno[3,2-e][1,4]diazepine-1-carboxylate] |  | 0.22 | IC50 [1, 7]: 0.0021 µM |
| CCOC(=O)c1ncn2c1CN(C)C(=O)c1sccc1-2 [Example 36, ethyl 5,6-dihydro-5-methyl-6-oxo-4H-imidazo[1,5-a]thieno[2,3-f][1,4]diazepine-3-carboxylate] |  | 12.6 | IC50 [1, 7]: 0.0011 µM |
| COC(=O)c1ncn2c1CN(C)C(=O)c1sccc1-2 [Example 37, methyl 5,6-dihydro-5-methyl-6-oxo-4H-imidazo[1,5-a]thieno[2,3-f][1,4]diazepine-3-carboxylate] |  | 0.83 | IC50 [1, 7]: 0.0012 µM |
| N#Cc1ncn2c1[C@@H]1CCCN1C(=O)c1ccccc1-2 [Example 42, (S)-11,12,13,13a-tetrahydro-9-oxo-9H-imidazo[1,5-a]pyrrolo[2,1-c][1,4]benzodiazepine-1-carbonitrile] | 31 | 12.1 |  |
| CN1C(=O)CN=C(c2ccccc2)c2cc(Cl)ccc21 [diazepam, reference compound] |  |  | protection from spasmodic seizures in the pentetrazole test ([2]; diazepam 5 mg/kg i.p., more than 900 mice): protected all experimental animals from spasmodic seizures; falling asleep / rousing reflex ([4]; diazepam 5 mg/kg i.v.): fall asleep immediately, no longer show rousing reflex; sleep in the lateral position, duration ([4]; diazepam 5 mg/kg i.v.): at least 60 minutes; time to slowly wake up ([4]; diazepam 5 mg/kg i.v.): about 1.5 hours; falling asleep ([4]; diazepam 10 mg/kg i.p.): fall asleep within a few minutes; sleep duration ([4]; diazepam 10 mg/kg i.p.): 2 to 3 h |

Source: patent publication US4316839A, “Imidazodiazepine derivatives” (Hoffman-La Roche Inc., priority 1979, dated 1982)
